Data as given in patent publication US20060182726A1, “Immunomodulating compositions, processes for their production and uses therefor” (The University of Queensland, priority 2002, published 2006).
Where a SMILES comes first, the peptide text is derived from it. The star is where a group is joined. Cbz = O=C(OCc1ccccc1)*; OtBu = CC(C)(C)O*

Assays:
[1] = tested on: NF-κB; settings: Pierce et al., 1997; cited from earlier work
[2] = tested on: NF-κB subunits; assay: Immunoblot of nuclear and cytoplasmic extracts of BMDCs for NF-κB subunits; type: cell-based; settings: murine BM precursors 6 days with GM-CSF and IL-4 in the presence of BAY
Method: To independently assess the relationship between RelB nuclear translocation and tolerance induction, BMDCs were generated in the presence or absence of the compound BAY 11-7082 (BAY). […] Murine BM precursors were incubated for 6 days with GM-CSF and IL-4 to produce BMDCs, in the presence or absence of BAY. All NF-κB subunits were demonstrable in BMDCs generated in the absence of BAY, and were present in both nuclear and cytoplasmic extracts (FIG. 2a). […] However, CD86 was expressed at higher levels in BAY-treated DCs than RelB-deficient DCs. […]
Nuclear and cytoplasmic extracts were prepared as previously described (Pettit et al., 1997) and protein estimations carried out using a Protein Assay kit (Bio-Rad, Hercules, Calif.). […] Following transfer to nitrocellulose (Amersham. Sussex, England), membranes were immunoblotted with either anti-RelB (sc-226), anti-p50 (sc-7178), anti-c-Rel, anti-RelA, or anti-p52 antibodies (all from Santa Cruz Biotechnology) followed by sheep anti-rabbit HRP-conjugated Ig (Silenus, Hawthorn, Australia) and then detected by enhanced chemiluminescence (ECL, Life Technologies, MO, USA) according to the manufacturer's instructions (Amersham).

[3] = tested on: BMDCs; assay: Cell surface marker expression, yield and viability of murine BMDCs generated with BAY (flow cytometry); type: cell-based
Method: To independently assess the relationship between RelB nuclear translocation and tolerance induction, BMDCs were generated in the presence or absence of the compound BAY 11-7082 (BAY). […] Murine BM precursors were incubated for 6 days with GM-CSF and IL-4 to produce BMDCs, in the presence or absence of BAY. All NF-κB subunits were demonstrable in BMDCs generated in the absence of BAY, and were present in both nuclear and cytoplasmic extracts (FIG. 2a). […] However, CD86 was expressed at higher levels in BAY-treated DCs than RelB-deficient DCs. […] The ability of adoptively-transferred BAY-treated DCs to prime an mBSA-specific T cell proliferative response in naïve syngeneic mice when pulsed with the antigen mBSA was reduced, compared with mBSA-pulsed untreated BMDCs, or immunisation with mBSA and CFA (FIG. 2c).
According to the inventors' experience, every new batch of BAY needs to be titrated. The final concentration for mouse BMDC cultures may range between 2 and 15 μM. Since tolerance induction correlates precisely with CD40 expression by the DC, varying concentrations of BAY are added to BM DC cultures. At day 6-8, yield is check and viability test using PI and CD40 expression by FACS. […]
BMDCs were incubated for 30 min on ice with anti-CD86-FITC (GL1, PharMingen, San Diego, Calif.), anti-CD11c-PE (HL3, PharMingen), anti-CD11b-PE (M1/70, PharMingen), F4/80-PE (Serotec, Raleigh, N.C.), CD8α-PE (53-6.7, PharMingen), CD3-PE (17A2, PharMingen), or with anti-CD40 (3/23, PharMingen), anti-CD19 (1D3, American Type Culture Collection, ATCC), anti-Ly6-g and c (Gr1, RB6-BC5), anti-CD45R (B220, RA3-6B2, each a gift from G. Hill, Queensland Institute for Medical Research, Brisbane, Q1d), anti-MHC class I and anti-MHC class II (2G9, PharMingen), followed by biotinylated rabbit anti-rat Ig (DAKO, CA) and then streptavidin-FITC (DAKO). After washing, cells were analyzed using a FACScalibur (Becton Dickinson, San Jose, Calif.). Intracellular cytokine production was measured in lymphocytes by flow cytometric staining as described, with minor modifications (Sander et al., 1991). […]

[4] = tested on: human monocyte-derived DC; assay: Phenotype of human monocyte-derived DC by flow cytometry; type: cell-based; settings: human monocytes 48 hours, GM-CSF, IL-4; 10 κM BAY11-7082 or 2.5 or 10 μM PSI; relative to immature DC
Method: FIG. 8 is a graphical representation showing that modified human DC lack CD40 compared to immature DC. MDDC were generated for 48 h from PB monocytes in the presence of GM-CSF and IL-4 in the presence (modified DC) or absence (immature DC) of BAY, then stained for various cell surface markers and analysed by flow cytometry.
FIG. 9 is a graphical representation showing that modified human DC are unresponsive to CD40L. MDDC were generated for 48 h from PB monocytes in the presence of GM-CSF and IL-4 in the presence (modified DC) or absence (immature DC) of BAY, washed then incubated with or without 50 ng/ml soluble CD40L. Cells were then stained for CD86 and HLA-DR and analysed by flow cytometry.
FIG. 22 is a graphical representation showing the phenotype of NF-κB^− dendritic cells is reproducible with different NF-κB inhibitors. Dendritic cells were generated from human monocytes for 48 hours in the presence of GM-CSF, IL-4 and in the presence or absence of either 10 μM BAY11-7082 or 2.5 or 10 μM PSI (N-benzyloxycarbonyl-Ile-Glu(O-tert-butyl)-Ala-leucinal). Cells were then stained with anti-CD40, anti-CD86, anti-HLA-DR and anti-MHC class I mAb (green lines) and compared with isotype control staining (purple) by flow cytometry.
Human PB monocytes were purified from PBMC by immunomagnetic selection using anti-CD14. They were incubated for 48 h in the presence of 800 U/mL each GM-CSF and IL-4 in RPMI and 10% FCS in the presence or absence of 8 μM BAY 11-7082. Nuclear extracts were prepared and RelB DNA binding was assessed using ELISA, as previously described (O'Sullivan and Thomas, 2002). […] In keeping with the lack of CD40 expression, modified DC were unresponsive to 24 h incubation with 500 ng/mL soluble CD40 ligand trimer (sCD40L, Immunex, Seattle Wash.).
The present inventors examined whether the phenotype of the described dendritic cells that are capable of inducing tolerance when transferred in vivo, is reproducible when dendritic cells are generated with various NT-κB^− inhibitors. Dendritic cells were generated from human monocles for 48 hours in the presence of GM-CSF, IL-4 and in the presence or absence of either 10 […] of the IκB phosphorylation inhibitor BAY11-7082 or 2.5 or 10 μM of the proteasome inhibitor PSI (N-benzyloxycarbonyl-Ile-Glu(O-tert-butyl)-Ala-leucinal).

[5] = tested on: RelB; assay: RelB DNA binding ELISA on nuclear extracts of monocyte-derived DC; type: cell-based; settings: human PB monocytes 48 h with GM-CSF and IL-4, 8 μM BAY 11-7082
Method: FIG. 7 is a graphical representation showing that nuclear extracts from BAY-treated monocyte-derived DC (MDDC) lack RelB-DNA binding and are unresponsive to LPS. MDDC were generated for 48 h from PB monocytes in the presence of GM-CSF and IL-4 in the presence (BAY DC) or absence (control DC) of 8 μM BAY, then stimulated with 1 μg/mL LPS for 24 hr. Nuclear extracts were prepared and analysed for NFkB DNA binding by ELISA.
Human PB monocytes were purified from PBMC by immunomagnetic selection using anti-CD14. They were incubated for 48 h in the presence of 800 U/mL each GM-CSF and IL-4 in RPMI and 10% FCS in the presence or absence of 8 μM BAY 11-7082. Nuclear extracts were prepared and RelB DNA binding was assessed using ELISA, as previously described (O'Sullivan and Thomas, 2002). […]
p50 and RelB DNA binding was detected by ELISA using a Mercury Transfactor p50 Kit (Clontech, Calif.). 10 μg of nuclear extract were bound to wells coated with NF-κB consensus oligonucleotide then incubated with either anti-RelB (sc-226) or anti-p50 (sc-7178), followed by anti-rabbit […] Ig (Silenus) and then detected by measuring color development of TMB at 650 nm using a Multiskan plate reader (Labsystems) (O'Sullivan and Thomas, 2002).

[6] = tested on: RelB; settings: LPS-treated monocyte-derived dendritic cells; cited from earlier work
[7] = murine BMDCs generated in the presence of BAY

SMILES	TNF-α-stimulated NF-κB translocation [1]	NFκB subunit immunoreactivity in nuclear and cytoplasmic extracts [2]	toxicity: yield and viability of BM DC cultures ([3]; concentrations higher than the minimum that suppresses CD40)	MHC class I and class II expression [3, 7]	cell surface CD40 expression [3, 7]	CD40 expression [4]	CD86 and MHC class I expression [4]	HLA-DR expression [4]	RelB nuclear DNA binding activity [5]	nuclear RelB translocation [6]
Cc1ccc(S(=O)(=O)/C=C/C#N)cc1 [BAY 11-7082]	block TNF-α-stimulated NF-κB translocation through inhibition of IκB phosphorylation	in the cytoplasm but not the nucleus	more toxic and affect yield and viability	expressed reduced levels of MHC class I and class II	lacked cell surface CD40 expression	CD40 expression was suppressed	CD86 and MHC class I expression were not changed	HLA-DR was reduced	lacked RelB nuclear DNA binding activity	–
CC[C@H](C)[C@H](NC(=O)OCc1ccccc1)C(=O)N[C@@H](CCC(=O)OC(C)(C)C)C(=O)N[C@@H](C)C(=O)N[C@H](C=O)CC(C)C [PSI, N-benzyloxycarbonyl-Ile-Glu(O-tert-butyl)-Ala-leucinal] (Cbz-IE(OtBu)AL-aldehyde)	–	–	–	–	–	CD40 expression was suppressed	CD86 and MHC class I expression were not changed	HLA-DR was reduced	–	–
C[S+]([O-])c1ccc(-c2nc(-c3ccncc3)c(-c3ccc(F)cc3)[nH]2)cc1 (stereo not shown) [SB203580]	–	–	–	–	–	–	–	–	–	blocks nuclear RelB translocation
